# In paper PMC5053523, “In Vitro Antibacterial Activity of Rhodanine Derivatives against Pathogenic Clinical Isolates” (PLoS ONE, 2016):
# Read-outs that look alike come from different tables or passages of the source.
# Assays:
# [1] = tested on: Acinetobacter baumannii; assay: MIC with/without sub-MIC colistin, Acinetobacter baumannii; format: cell-based
# Method in brief: (§1)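 Rhodanines and control antibiotics are tested for MIC against Gram-negative bacteria while a sub-inhibitory level of colistin or PMBN is present. A strain of E. coli lacking the AcrAB efflux pump (SM1411ΔacrAB) serves as an additional test organism.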
# [2] = tested on: methicillin-resistant Staphylococcus aureus (MRSA); assay: Broth microdilution MIC/MBC, MRSA; format: cell-based
# [3] = tested on: P. aeruginosa; assay: Broth microdilution MIC, P. aeruginosa; format: cell-based; settings: Pseudomonas aeruginosa
# [4] = tested on: K. pneumoniae; assay: Broth microdilution MIC, K. pneumoniae; format: cell-based
# [5] = tested on: vancomycin resistant enterococci (VRE) E. faecium; assay: Broth microdilution MIC/MBC, VRE E. faecium; format: cell-based; settings: for MIC: read-out: MIC
# [6] = tested on: Bacillus Strains; assay: Broth microdilution MIC50/MIC90 and MIC range, Bacillus strains panel; format: cell-based, Bacillus spp.; settings: 10 Bacillus strains
# Description: The broth microdilution technique was used, followed by subculturing on agar plates that were rhodanine—free. […] The MICs reported represent the lowest concentration of each compound necessary to inhibit bacterial growth and the MBCs represent the lowest concentration required to reduce the initial bacterial inoculum by ≥ 99.9%.
# [7] = tested on: Pseudomonas aeruginosa; assay: MIC with/without PMBN, Pseudomonas aeruginosa; format: cell-based
# Method in brief: as §1
# [8] = tested on: vancomycin resistant enterococci (VRE) E. faecalis; assay: Broth microdilution MIC/MBC, VRE E. faecalis; format: cell-based; settings: for MIC: read-out: MIC
# [9] = tested on: MRSA USA300; assay: MIC against MRSA USA300 with and without 4% human serum albumin; format: cell-based, Staphylococcus aureus; settings: Staphylococcus aureus, read-out: MIC against MRSA USA300
# Method in brief: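 Broth microdilution MIC per CLSI against MRSA USA300, run in tryptic soy broth alone and with 4% human serum albumin. MIC is the lowest concentration inhibiting growth.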
# [10] = tested on: Clostridium difficile; assay: MIC against Clostridium difficile, anaerobic broth dilution; format: cell-based; settings: Clostridioides difficile
# Method in brief: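 Clinical C. difficile isolates grown anaerobically 48 h at 37 °C, suspended to 0.5 McFarland and diluted 1:300 in pre-reduced supplemented Brain Heart Infusion broth. Compounds serially diluted; plates incubated anaerobically at 37 °C for 48 h. MIC = lowest concentration with no visible growth.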
# [11] = tested on: Klebsiella pneumoniae; assay: MIC with/without PMBN, Klebsiella pneumoniae; format: cell-based
# Method in brief: as §1
# [12] = tested on: Candida albicans; assay: MIC against Candida albicans; format: cell-based; settings: table prints none, read-out: MIC
# [13] = E. faecium HM 968 Strain ERV102
# [14] = E. faecium NR31914 Strain E0120
# [15] = E. faecium Patient #1–1 NR-31903
# [16] = E. faecalis NR31972 Strain SF 28073
compound,measurement,setting,value
O=C(O)[C@@H](Cc1ccccc1)N1C(=O)/C(=C/c2cccc(Cc3ccccc3)c2)SC1=S [Rh 7],MIC,"[1]; Acinetobacter baumannii ATCC BAA747, colistin (+) […], read-out: MIC",>64 µM
same,MIC,"[1]; Acinetobacter baumannii ATCC BAA19606, colistin (+) […], read-out: MIC",>64 µM
same,MIC,"[1]; Acinetobacter baumannii, ATCCBAA747",> 128 µM
same,MIC,"[1]; Acinetobacter baumannii, ATCCBAA19606",> 128 µM
same,MIC50,[2]; 11 MRSA strains,8 µM
same,MIC90,[2]; 11 MRSA strains,16 µM
same,MBC,[2]; MRSA NRS 1,16 µM
same,MIC,[2]; MRSA NRS 1,8 µM
same,MBC,[2]; MRSA NRS 19,8 µM
same,MIC,[2]; MRSA NRS 19,8 µM
same,MBC,[2]; MRSA NRS 37,16 µM
same,MIC,[2]; MRSA NRS 37,16 µM
same,MBC,[2]; MRSA NRS 107,16 µM
same,MIC,[2]; MRSA NRS 107,16 µM
same,MBC,[2]; MRSA NRS 119,8 µM
same,MIC,[2]; MRSA NRS 119,8 µM
same,MBC,[2]; MRSA NRS 383,16 µM
same,MIC,[2]; MRSA NRS 383,16 µM
same,MBC,[2]; MRSA NRS 384,64 µM
same,MIC,[2]; MRSA NRS 384,8 µM
same,MBC,[2]; MRSA NRS 385,16 µM
same,MIC,[2]; MRSA NRS 385,8 µM
same,MBC,[2]; MRSA NRS 386,> 64 µM
same,MIC,[2]; MRSA NRS 386,8 µM
same,MBC,[2]; MRSA NRS 387,8 µM
same,MIC,[2]; MRSA NRS 387,8 µM
same,MIC,[3]; ATCC9721,> 128 µM
same,MIC,[3]; ATCC15442,> 128 µM
same,MIC,[4]; K. pneumoniae NR-15417,>128 µM
same,MIC,[4]; Klebsiella pneumoniae,> 128 µM
same,MBC,[5]; E. faecium E417 HM-965,64 µM
same,MIC,[5]; E. faecium E417 HM-965,8 µM
same,MBC,[5]; E. faecium E1071 NR-28978,> 64 µM
same,MIC,[5]; E. faecium E1071 NR-28978,16 µM
same,MBC,[5]; [13],> 64 µM
same,MIC,[5]; [13],16 µM
same,MBC,[5]; [14],32 µM
same,MIC,[5]; [14],16 µM
same,MBC,[5]; [15],16 µM
same,MIC,[5]; [15],8 µM
same,MIC50,[6],4 µM
same,MIC90,[6],8 µM
same,MIC,"[7]; Pseudomonas aeruginosa ATCC 9721, PMBN (+) 4 μg/mL, read-out: MIC",>64 µM
same,MIC,"[7]; Pseudomonas aeruginosa, ATCC9721",> 128 µM
same,MBC,[8]; E. faecalis ERV103 HM-934,16 µM
same,MIC,[8]; E. faecalis ERV103 HM-934,16 µM
same,MBC,[8]; [16],16 µM
same,MIC,[8]; [16],16 µM
same,MBC,[8]; E. faecalis R712 HM-335,16 µM
same,MIC,[8]; E. faecalis R712 HM-335,8 µM
same,MBC,[8]; E. faecalis S613 HM-334,16 µM
same,MIC,[8]; E. faecalis S613 HM-334,16 µM
same,MBC,[8]; E. faecalis TX0104 HM-201,16 µM
same,MIC,[8]; E. faecalis TX0104 HM-201,16 µM
same,MIC,"[9]; 24 h, Media TSB + 4% HSA",> 64 µM
same,MIC,[9]; Media TSB,16 µM
same,MIC,[10]; C. difficile HM-88,4 µM
same,MIC,[10]; C. difficile HM-745,1 µM
same,MIC,[10]; C. difficile HM-746,2 µM
same,MIC,[10]; C. difficile Isolate-1 NR-13427,4 µM
same,MIC,[10]; C. difficile Toxigenic Strain P8 NR-32888,4 µM
same,MIC,"[11]; Klebsiella pneumoniae ATCC BAA 1706, PMBN (+) 4 μg/mL",>64 µM
same,MIC,"[11]; Klebsiella pneumoniae ATCC BAA 2146, PMBN (+) 4 μg/mL",>64 µM
same,MIC,"[11]; Klebsiella pneumoniae, BAA1706",> 128 µM
same,MIC,"[11]; Klebsiella pneumoniae, BAA2146",> 128 µM
same,MIC,"[12]; ATCC10231, C. albicans ATCC 10231, unit from abstract",> 64 µM
same,MIC,"[12]; C. albicans NR 29434, unit from abstract",> 64 µM
same,MIC,"[12]; C. albicans NR 29435, unit from abstract",> 64 µM
same,MIC,"[12]; C. albicans NR29437, unit from abstract",> 64 µM
same,MIC,"[12]; C. albicans NR29438, unit from abstract",> 64 µM
same,MIC,"[12]; C. albicans NR 29446, unit from abstract",64 µM
same,MIC,"[12]; C. albicans NR 29448, unit from abstract",> 64 µM
same,MIC,"[12]; C. albicans NR 29449, unit from abstract",> 64 µM
same,MIC,"[12]; C. albicans NR 29453, unit from abstract",> 64 µM
same,MIC,"[12]; C. albicans NR 294436, unit from abstract",> 64 µM
